Common to all, as to assay type: cell-based, human
The test system of data set [1] is P-ERK1/2(T202/Y204). The experiment in a line: ERK MAP kinase activation by sMICA plus crosslinking anti-His tag Ab (immunoblot). The settings on record: for phosphorylation of ERK1/2: desensitized EpCAM+CD45− ovarian cancer (OT63), HTB-78, MCF-7-TF cells, sMICA 1 μg/ml crosslinked by anti-His tag Ab, or EGF 100 ng/ml. An excerpt:
(§1) NKG2D was immunoprecipitated from standard NP-40 buffer lysates of FACSAria-sorted EpCAM^+CD45^− cancer cells (˜5×10^6 per lane), tumor lines (˜5×10^7 cells; 2×10^7 cells with BT-20), and transfectants (5×10^6 cells) using mAb 5C6 immobilized on AminoLink Plus Coupling Resin (Pierce). DAP10 was immunoprecipitated using rabbit polyclonal antibodies (FL-93; Santa Cruz Biotechnology). Immunoblots were probed with polyclonal antibodies to NKG2D or DAP10 (N-20 and N-17; Santa Cruz Biotechnology), or Grb2 (Cell Signaling Technology) and developed using secondary reagents and Supersignal West Dura Extended Duration Substrate (Pierce). Immunoprecipitation and immunoblot detection of mouse NKG2D utilized a rat mAb (clone 191004; R&D Systems) and goat polyclonal reagent (H-15; Santa Cruz Biotechnology), respectively. For P-AKT induction, cancer cells and tumor lines (2×10^6 cells per experimental condition) cultured in 6-well plates were desensitized for 16 h and 4-24 h, respectively, in serum-free RPMI at 37° C. before exposure in 0.5 ml RPMI to insulin (5 μg/ml; 35 min at 37° C.), mAb 1D11 (purified with MabTrap Kit; GE Healthcare Life Sciences) or mAb 5C6 F(ab′)2 (produced with Pierce F(ab′)2 preparation kit) (each 5 μg/ml; 30 min at 4° C.). For crosslinking, washed cells in 0.2 ml RPMI were exposed to goat anti-mouse F(ab′)2 (20 μg/ml; 5 min at 37° C.; Jackson ImmunoResearch). Wortmannin (100 nM; Sigma) was applied 2 h before stimulations. Reactions were terminated on ice by addition of 1 ml sodium orthovanadate (Na3VO4, 2 mM in cold PBS; Calbiochem) and cells resuspended in NP-40 lysis buffer with protease inhibitor cocktail (Roche) and Na3VO4. Cleared supernatants were subjected to SDS-PAGE (4-12% gradient NuPAGE gels; Invitrogen) and proteins electroblotted onto PVDF membranes (Immobilon-P; Millipore), which were probed with rabbit anti-human phospho-AKT(S473) (clone 193H12) or pan-AKT (clone C67E7), secondary HRP-conjugated anti-rabbit IgG (all from Cell Signaling Technology), and chemiluminescent reagent. […] Inhibitors wortmannin (100 nM) and rapamycin (50 nM; LC Laboratories) were added after 2 h of desensitization. Detached cells were sequentially washed and exposed to 1D11 mAb and crosslinking Ab in 0.5 and 0.2 ml cold HBSS, respectively, and processed as above. […] Phosphoproteins and protein controls were detected using rabbit polyclonal antibodies (to P-mTOR, P-S6K1, and P-4E-BP1), mAbs (clones 7C10, 236B4, and 53H11), and anti-rabbit IgG-HRP (all from Cell Signaling Technology). MAPKs were detected with cells grown to semi-confluence in 6-well plates and desensitized for 24 h. […]
(§2) As determined so far, signaling pathway activation by NKG2D-DAP10 in tumor cells was similar to lymphocytes. […]
For orientation: A western blot detects proteins with antibodies after separation by electrophoresis.

The test system of data set [2] is P-JNK1/2(T183/Y185). In words: JNK MAP kinase activation by sMICA plus crosslinking anti-His tag Ab (immunoblot). To be noted: for phosphorylation of JNK1/2: desensitized EpCAM+CD45− ovarian cancer (OT63), HTB-78, MCF-7-TF cells, sMICA 1 μg/ml crosslinked by anti-His tag Ab, or EGF 100 ng/ml.
Text: as §1, §2

Data set [3] relates to surface NKG2D. In words: Flow cytometry of tumor lines for surface NKG2D. The settings on record: breast, colon, gastric, ovarian, prostate tumor lines after exposure. The method, then:
Tumor cell lines BT-20, MDA-MB-453, HTB-78, AGS, MDA-MB-231, DLD-1, PC3, and A375 were grown in RPMI 1640, and MCF-7 in Eagle's minimal essential medium (EMEM) plus insulin (0.01 mg/ml; Sigma), both media supplemented with 10% FBS. The mouse TEC and PAM 212 lines were from the ATCC, and […] was provided by Dr. Norm Greenberg (FHCRC). Abs for immunohistochemistry and flow cytometry of cell surface markers were mAb together with HRP-conjugated secondary reagents and mAb-fluorochrome conjugates, respectively, to NKG2D (clone 1D11, -APC; 3), MICA/MICB (clone 6D4, -PE; 7), CD45 (clone 2D1, -APC-Cy7), CD3 (clone UCHT1) (all from BD Pharmingen), and EpCAM (clone 9C4, -Alexa Fluor 488; BioLegend). Binding of anti-ULBP1-5 antibodies (mAbs 3F1, 6F6, 4F9, 6E6, and 6D10; 14) was visualized with a PE-conjugated secondary reagent. Cancer cell viability was assessed using a LIVE/DEAD Fixable Violet Dead Cell Stain kit (Invitrogen). Immunohistochemistry stainings of tissue cryosections employed the Envision System (Dako) protocol. Cells were examined for mAb surface stainings using a BD LSR II flow cytometer and FlowJo software (Tree Star).
On the technique in general: Flow cytometry measures light scatter and fluorescence of single cells or particles in a stream.

Data set [4] has as its system P-AKT(S473). In words: P-AKT induction after NKG2D crosslinking in freshly isolated cancer cells (immunoblot). The settings on record: sorted EpCAM+CD45− breast, ovarian, prostate cancer cells after serum deprivation; crosslinked Ab 5 μg/ml or insulin 5 μg/ml. The text has this: (§3) NKG2D was immunoprecipitated from standard NP-40 buffer lysates of FACSAria-sorted EpCAM^+CD45^− cancer cells (˜5×10^6 per lane), tumor lines (˜5×10^7 cells; 2×10^7 cells with BT-20), and transfectants (5×10^6 cells) using mAb 5C6 immobilized on AminoLink Plus Coupling Resin (Pierce). DAP10 was immunoprecipitated using rabbit polyclonal antibodies (FL-93; Santa Cruz Biotechnology). Immunoblots were probed with polyclonal antibodies to NKG2D or DAP10 (N-20 and N-17; Santa Cruz Biotechnology), or Grb2 (Cell Signaling Technology) and developed using secondary reagents and Supersignal West Dura Extended Duration Substrate (Pierce). Immunoprecipitation and immunoblot detection of mouse NKG2D utilized a rat mAb (clone 191004; R&D Systems) and goat polyclonal reagent (H-15; Santa Cruz Biotechnology), respectively. […] Phosphoproteins and protein controls were detected using rabbit polyclonal antibodies (to P-mTOR, P-S6K1, and P-4E-BP1), mAbs (clones 7C10, 236B4, and 53H11), and anti-rabbit IgG-HRP (all from Cell Signaling Technology). MAPKs were detected with cells grown to semi-confluence in 6-well plates and desensitized for 24 h. […]

For data set [5], the system named is P-mTOR(S2448), P-S6K1(T389), and P-4E-BP1(T37/46). In words: Activation of mTOR-S6K1/4E-BP1 after NKG2D crosslinking (immunoblot). The settings on record: HTB-78 and MCF-7-TF cells after starvation.
Description: Detached cells were sequentially washed and exposed to 1D11 mAb and crosslinking Ab in 0.5 and 0.2 ml cold HBSS, respectively, and processed as above. Sample electrophoresis was in 3-8% (mTOR) and 4-12% (4E-BP1) gradient NuPAGE gels. Phosphoproteins and protein controls were detected using rabbit polyclonal antibodies (to P-mTOR, P-S6K1, and P-4E-BP1), mAbs (clones 7C10, 236B4, and 53H11), and anti-rabbit IgG-HRP (all from Cell Signaling Technology).
Data set [6] deals with P-AKT(S473). In words: P-AKT induction after NKG2D crosslinking in tumor lines (immunoblot). The settings on record: desensitized MCF-7, BT-20, MDA-MB-453, HTB-78, DLD-1, AGS cells.
Text: as §3

Data set [7] has as its system DAP10. The experiment in a line: DAP10 protein depletion by siRNA (immunoblot). To be noted: CD8 T cells, 2×10^6 per lane.
Text: as §3

The subject of data set [8] is AKT(S473) phosphorylation. The experiment in a line: Inducible AKT phosphorylation in siRNA-transduced MCF-7 cells. To be noted: lentiviral siRNA transduction.
Text: as §3

The subject of data set [9] is MCF-7 cells. The experiment in a line: Expansion of siRNA-transduced MCF-7 cells.
Where [10] appears, read: U0126 10 μM, SP600125 100 μM, wortmannin 200 nM, added 30 min before stimulation.
Setting [11] is: tumor cell exposure to sMICA or anti-His tag Ab alone, no crosslinking.

Take `N#CC(=C(/N)Sc1ccccc1N)/C(C#N)=C(\N)Sc1ccccc1N` [U0126, reference compound]: in data set [1] (setting [10]), the “effect of inhibitor on appearance of P-ERK1/2” value was “diminished”. In addition, the “effect of inhibitor on appearance of P-JNK1/2” value in [2] (setting [10]) was “not vice versa”.

For “EGF: rhEGF, positive control activation of MAP kinases [reference compound]”, the “phosphorylation of ERK1/2” value in [1] is listed as “positive control activation”. Moreover, in data set [2], the “phosphorylation of JNK1/2” value was “positive control activation”.

Turning to “IL-15: cytokine which induces T cell NKG2D”, in data set [3], the “surface NKG2D expression” value is “No increased expression”.

In the case of “insulin: positive control activation of AKT, 5 μg/ml”, the “induction of Phospho-AKT (P-AKT)” value in data set [4] is “positive control activation except for the unresponsive prostate cancer cells”. In addition, in data set [5], the “induction of P-mTOR(S2448), P-S6K1(T389), P-4E-BP1(T37/46)” value is listed as “positive control activation”. The “induction of P-AKT” value in data set [6] was “positive control activation”.

B1: DAP10 siRNA: lentivirally expressed hairpin siRNA targeting DAP10 (HCST) mRNA positions 165-193; oligonucleotides SEQ ID NO:21 and 22 (nucleic acid, listed as Homo sapiens)
chain 1: CTAGAAGCTCAGACGACTCCAGGAGAGAGATCATTCAAGAGATGATCTCTCTCCTGGAGTCGTCTGAGCTTTTTTTGAT
chain 2: ATCAAAAAAAGCTCAGACGACTCCAGGAGAGAGATCATCTCTTGAATGATCTCTCTCCTGGAGTCGCTGAGCTT
modifications: the letters are possibly those of the target site
B1: the “depletion of DAP10” value in data set [7] was “depletion”. The “inducible AKT(S473) phosphorylation” value in data set [8] is listed as “Absence of inducible AKT(S473) phosphorylation”. Besides, the “proliferation of transduced cells” value in [9] is on record as “proliferated poorly”.

B2: sMICA: recombinant soluble MICA, His-tagged NKG2D ligand purified from transfected 293T cells (protein)
chain: EPHSLRYNLTVLSWDGSVQSGFLTEVHLDGQPFLRCDRQKCRAKPQGQWAEDVLGNKTWDRETRDLTGNGKDLRMTLAHIKDQKEGLHSLQEIRVCEIHEDNSTRSSQHFYYDGELFLSQNLETKEWTMPQSSRAQTLAMNVRNFLKEDAMKTKTHYHAMHADCLQELRRYLKSGVVLRRTVPPMVNVTRSEASEGNITVTCRASGFYPWNITLSWRQDGVSLSHDTQQWGDVLPDGNGTYQTWVATRICQGEEQRFTCYMEHSGNHSTHPVPSGKVLVLQSHW
modifications: left off: small tags and cut ends
notes: recombinant soluble MICA, His-tagged NKG2D ligand purified from transfected 293T cells
Regarding B2, in data set [1], the “phosphorylation of ERK1/2” value is recorded as “resulted in phosphorylation”. Moreover, the “phosphorylation of ERK1/2, reagent alone” value in data set [1] (setting [11]) is “no effect”. Moreover, in [2], the “phosphorylation of JNK1/2” value is recorded as “resulted in phosphorylation”. Further, the “phosphorylation of JNK1/2, reagent alone” value in data set [2] (setting [11]) is given as “no effect”.
